The values that follow come from patent US11034648B2, “Cystobactamide derivatives” (priority 2017, dated 2021).

Holding throughout (format): cell-based
In one test the test system is P. aeruginosa ΔmexAB. Put plainly: microbe, parasite or virus in culture. The settings on record: Pseudomonas aeruginosa, 16 h, read-out: MIC P. aeruginosa ΔmexAB, efflux-deficient strain; small panel, Tables 1a/1b. On the procedure:
(§1) Cystobactamid derivatives synthesized were tested against relevant Gram negative and positive bacteria of clinical interest. Experimental procedures used for the biological characterization of the compounds are the same as previously described in WO 2016/082934.
(§2) Bacterial strains used in susceptibility assays (minimum inhibitory concentration, MIC) were either part of our internal strain collection or purchased from the German Collection of Microorganisms and Cell Cultures (Deutsche Sammlung von Mikroorganismen und Zellkulturen, DSMZ) and the American Type Culture Collection (ATCC). The susceptible E. coli strain (WT) and fluoroquinolone-resistant mutants E. coli WT-3 and WT-III were kindly provided by Prof Dr. P. Heisig, Pharmaceutical Biology and Microbiology, University of Hamburg, Germany. The efflux-deficient strain P. aeruginosa ΔmexAB was kindly provided by Prof Dr. S. Häußler, Institute for Molecular Bacteriology, TWINCORE, Hannover, Germany. All compounds were prepared as DMSO stocks and MIC values were determined in standard microbroth dilution assays in 96-well MTPs as described in Baumann et al., Angew Chem Int Ed Engl. 2014; 53(52):14605-9. In brief, overnight cultures of bacteria were diluted in either tryptic soy broth (TSB: 1.7% peptone casein, 0.3% peptone soymeal, 0.25% glucose, 0.5% NaCl, 0.25% K2HPO4; pH 7.3; S. pneumoniae and E. faecalis) or cation-adjusted Müller-Hinton Broth (BBL™, BD; all other bacteria) and adjusted to 10^4-10^6 cfu/mL. Bacteria were grown in the presence of the derivatives in serial dilution for approx. 16 h at 30-37° C. MIC values were determined and were defined as the antibiotic concentration at which no visual growth of bacteria was observed.

In a further test the test system is E. coli ΔtolC. Put plainly: microbe, parasite or virus in culture. The note with it: Escherichia coli, 16 h, read-out: MIC E. coli ΔtolC, small panel, Tables 1a/1b; no visual growth after approx. 16 h. On the procedure:
as §1, §2

The test system of the next test is E. coli WT DSM-1116. Put plainly: MIC, microbroth dilution susceptibility assay. The note with it: Escherichia coli, DSM1116; small panel, Tables 1a/1b; no visual growth after approx. 16 h; read-out: MIC E. coli WT DSM-1116. On the procedure: as §1, §2
In a further test the test system is P. aeruginosa WT PA14. Kind of test: MIC, microbroth dilution susceptibility assay. The settings on record: Pseudomonas aeruginosa, PA14, small panel, Tables 1a/1b; read-out: MIC P. aeruginosa WT PA14. On the procedure: as §1, §2
(Broth dilution looks for growth in wells or tubes with falling amounts of substance.)

A further test has as its system S. aureus Newman. Put plainly: MIC, microbroth dilution susceptibility assay. The note with it: Staphylococcus aureus, NEWMAN; small panel, Tables 1a/1b; read-out: MIC S. aureus Newman. On the procedure: as §1, §2

≈ marks a conversion by molar mass, not a printed value.

As for `CC(C)Oc1c(NC(=O)c2ccc(NC(=O)[C@H](CC(N)=O)NC(=O)c3ccc(NC(=O)C(C)Oc4ccccc4)cc3)cc2)ccc(C(=O)Nc2ccc(C(=O)O)cc2)c1O` (stereo partly drawn) [Compound 54, 4-(4-(4-((2S)-4-amino-4-oxo-2-(4-(2-phenoxypropanamido)benzamido)butanamido)benzamido)-2-hydroxy-3-isopropoxybenzamido)benzoic acid], the MIC was > 64 µg/mL with P. aeruginosa ΔmexAB; 4 µg/mL (≈ 4.81 µM) in the test on E. coli ΔtolC; > 64 µg/mL with E. coli WT DSM-1116; > 64 µg/mL with P. aeruginosa WT PA14; > 64 µg/mL in the test with S. aureus Newman.

Regarding `CC(C)Oc1c(NC(=O)c2ccc(NC(=O)[C@H](CC(N)=O)NC(=O)c3ccc(NC(=O)c4ccncc4)cc3)cc2)ccc(C(=O)Nc2ccc(C(=O)O)cc2)c1O` [Compound 55, (S)-4-(4-(4-(4-amino-2-(4-(isonicotinamido)benzamido)-4-oxobutanamido)benzamido)-2-hydroxy-3-isopropoxybenzamido)benzoic acid], the MIC in the test with P. aeruginosa ΔmexAB is 2 µg/mL (≈ 2.54 µM); with E. coli ΔtolC, < 0.03 µg/mL; in the test on E. coli WT DSM-1116, 1 µg/mL (≈ 1.27 µM); with P. aeruginosa WT PA14, > 64 µg/mL; in the test on S. aureus Newman it was > 64 µg/mL.

With `CC(C)Oc1c(NC(=O)c2ccc(NC(=O)[C@H](CC(N)=O)NC(=O)c3ccc(NC(=O)c4ccc(S(C)(=O)=O)cc4)cc3)cc2)ccc(C(=O)Nc2ccc(C(=O)O)cc2)c1O` [Compound 56, (S)-4-(4-(4-(4-amino-2-(4-(4-(methylsulfonyl)benzamido)benzamido)-4-oxobutanamido)benzamido)-2-hydroxy-3-isopropoxybenzamido)benzoic acid], the MIC in the test on P. aeruginosa ΔmexAB is > 64 µg/mL; with E. coli ΔtolC, < 0.03 µg/mL; in the test with E. coli WT DSM-1116, 2 µg/mL (≈ 2.31 µM); with P. aeruginosa WT PA14, > 64 µg/mL; in the test on S. aureus Newman, > 64 µg/mL.

With `CC(C)Oc1c(NC(=O)c2ccc(NC(=O)[C@H](CC(N)=O)NC(=O)c3ccc(NC(=O)c4ccc5c(c4)COC5=O)cc3)cc2)ccc(C(=O)Nc2ccc(C(=O)O)cc2)c1O` [Compound 57, (S)-4-(4-(4-(4-amino-4-oxo-2-(4-(1-oxo-1,3-dihydroisobenzofuran-5-carboxamido)benzamido)butanamido)benzamido)-2-hydroxy-3-isopropoxybenzamido)benzoic acid], the MIC in the test with P. aeruginosa ΔmexAB was 1 µg/mL (≈ 1.19 µM); in the test with E. coli ΔtolC, < 0.03 µg/mL; in the test on E. coli WT DSM-1116, < 0.03 µg/mL; in the test on P. aeruginosa WT PA14, > 64 µg/mL; in the test with S. aureus Newman, 1 µg/mL (≈ 1.19 µM).

Regarding `C/C(=C\c1ccc(C#N)cc1)C(=O)Nc1ccc(C(=O)N[C@@H](CC(N)=O)C(=O)Nc2ccc(C(=O)Nc3ccc(C(=O)Nc4ccc(C(=O)O)cc4)c(O)c3OC(C)C)cc2)cc1` [Compound 58, (S,E)-4-(4-(4-(4-amino-2-(4-(3-(4-cyanophenyl)-2-methylacrylamido)benzamido)-4-oxobutanamido)benzamido)-2-hydroxy-3-isopropoxybenzamido)benzoic acid], the MIC is 0.25 µg/mL (≈ 0.293 µM) in the test with P. aeruginosa ΔmexAB; < 0.03 µg/mL in the test with E. coli ΔtolC; 0.125 µg/mL (≈ 0.147 µM) in the test on E. coli WT DSM-1116; 1 µg/mL (≈ 1.17 µM) in the test with P. aeruginosa WT PA14; 0.06 µg/mL (≈ 0.0704 µM) in the test with S. aureus Newman.

On to `CC(C)COc1c(NC(=O)c2ccc(NC(=O)[C@H](CC(N)=O)NC(=O)c3ccc(NC(=O)c4ccc([N+](=O)[O-])cc4)cc3)cc2)ccc(C(=O)Nc2ccc(C(=O)O)cc2)c1O` [Compound 65, (S)-4-(4-(4-(4-amino-2-(4-(4-nitrobenzamido)benzamido)-4-oxobutanamido)benzamido)-2-hydroxy-3-isobutoxybenzamido)benzoic acid], for which the MIC in the test with P. aeruginosa ΔmexAB is > 64 µg/mL; in the test on E. coli ΔtolC it was > 64 µg/mL; with E. coli WT DSM-1116, > 64 µg/mL; in the test with P. aeruginosa WT PA14 it was > 64 µg/mL; with S. aureus Newman, 1 µg/mL (≈ 1.18 µM).

For `CC(C)Oc1cc(C(=O)Nc2ccc(C(=O)O)cc2)ccc1NC(=O)c1ccc(NC(=O)[C@H](CC(N)=O)NC(=O)c2ccc(NC(=O)c3ccc([N+](=O)[O-])cc3)cc2)cc1` [Compound 69, (S)-4-(4-(4-(4-amino-2-(4-(4-nitrobenzamido)benzamido)-4-oxobutanamido)benzamido)-3-isopropoxybenzamido)benzoic acid], the MIC in the test with P. aeruginosa ΔmexAB was 1 µg/mL (≈ 1.23 µM); with E. coli ΔtolC, 0.06 µg/mL (≈ 0.0735 µM); in the test with E. coli WT DSM-1116, > 64 µg/mL; in the test on P. aeruginosa WT PA14 it was > 64 µg/mL; in the test with S. aureus Newman, > 64 µg/mL.
